Source: ChEMBL document CHEMBL2385026, “Identification of C-2 hydroxyethyl imidazopyrrolopyridines as potent JAK1 inhibitors with favorable physicochemical properties and high selectivity over JAK2” (J Med Chem, 2013)
Converted amounts (≈) assume the structure as drawn. One block for each molecule: values may come before it.

Key:
[1] = Hepatic clearance in human liver microsomes by LC/MS/MS analysis; type: ADME, Microsome
[2] = Hepatic clearance in human hepatocytes after 1 to 4 hrs by LC/MS/MS analysis; type: ADME, cell-based, Liver, Hepatocyte
[3] = Apparent permeability across apical to basolateral side in dog MDCK cells; type: ADME, cell-based, Canis lupus familiaris
[4] = molecular target: T1, Tyrosine-protein kinase JAK1 (Homo sapiens, UniProt P23458)
[5] = molecular target: T1, Tyrosine-protein kinase JAK1; remark: listed apart in the source
[6] = molecular target: T1, Tyrosine-protein kinase JAK1; remark: listed apart in the source
[7] = molecular target: T2, Tyrosine-protein kinase JAK2 (Homo sapiens, UniProt O60674); type: cell-based, TF-1
[8] = molecular target: T2, Tyrosine-protein kinase JAK2
Cytochrome P450 3A4 [9] = molecular target: T3, Cytochrome P450 3A4 (Homo sapiens, UniProt P08684); assay: Reversible inhibition of CYP3A4 in human liver microsomes using testosterone as substrate by LC/MS/MS analysis; type: ADME, Microsome
Cytochrome P450 1A2 = molecular target: T4, Cytochrome P450 1A2 (Homo sapiens, UniProt P05177); assay: Reversible inhibition of CYP1A2 in human liver microsomes using phenacetin as substrate by LC/MS/MS analysis; type: ADME, Microsome
T4 sequence (P05177 whole entry): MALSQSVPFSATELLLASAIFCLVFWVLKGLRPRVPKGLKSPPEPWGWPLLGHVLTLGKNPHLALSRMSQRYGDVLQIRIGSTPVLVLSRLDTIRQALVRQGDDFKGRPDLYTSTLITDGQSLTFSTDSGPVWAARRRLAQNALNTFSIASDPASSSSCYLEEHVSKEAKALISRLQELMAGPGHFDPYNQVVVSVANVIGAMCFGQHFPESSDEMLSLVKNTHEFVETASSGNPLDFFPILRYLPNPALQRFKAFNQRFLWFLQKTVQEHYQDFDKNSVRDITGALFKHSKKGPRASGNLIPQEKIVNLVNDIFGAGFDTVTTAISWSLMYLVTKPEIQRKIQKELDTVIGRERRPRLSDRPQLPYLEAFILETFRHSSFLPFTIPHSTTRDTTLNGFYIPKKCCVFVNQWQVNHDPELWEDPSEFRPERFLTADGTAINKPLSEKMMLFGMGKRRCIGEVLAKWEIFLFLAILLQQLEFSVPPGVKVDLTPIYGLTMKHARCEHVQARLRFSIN

Cytochrome P450 3A4 [10] = molecular target: T3, Cytochrome P450 3A4; assay: Reversible inhibition of CYP3A4 in human liver microsomes using midazolam as substrate by LC/MS/MS analysis; type: ADME, Microsome
[11] = molecular target: Tyrosine-protein kinase JAK3 (Homo sapiens, UniProt P52333)
[12] = Oral bioavailability in Beagle dog at 2 mg/kg by LC/MS/MS analysis; type: ADME, organism-based, Canis lupus familiaris; conditions: Beagle, in vivo
[13] = Oral bioavailability in Sprague-Dawley rat at 2 mg/kg by LC/MS/MS analysis; type: ADME, organism-based; conditions: Sprague-Dawley, in vivo
[14] = Cmax in Beagle dog at 2 mg/kg, po by LC/MS/MS analysis; type: ADME, organism-based, Canis lupus familiaris; parameters: dose 2 mg/kg, route oral; conditions: in vivo
[15] = AUC in Beagle dog at 2 mg/kg, po by LC/MS/MS analysis; type: ADME, organism-based, Canis lupus familiaris; parameters: dose 2 mg/kg, route oral; conditions: plasma
[16] = AUC in Sprague-Dawley rat at 2 mg/kg, po by LC/MS/MS analysis; type: ADME, organism-based; parameters: dose 2 mg/kg, route oral; conditions: plasma
[17] = Half life in Beagle dog at 0.4 mg/kg, iv by LC/MS/MS analysis; type: ADME, organism-based, Canis lupus familiaris; parameters: dose 0.4 mg/kg, route intravenous; conditions: in vivo
[18] = Half life in Sprague-Dawley rat at 0.4 mg/kg, iv by LC/MS/MS analysis; type: ADME, organism-based; parameters: dose 0.4 mg/kg, route intravenous; conditions: in vivo
[19] = Clearance in Beagle dog at 0.4 mg/kg, iv by LC/MS/MS analysis; type: ADME, organism-based, Canis lupus familiaris; parameters: dose 0.4 mg/kg, route intravenous; conditions: in vivo
[20] = Clearance in Sprague-Dawley rat at 0.4 mg/kg, iv by LC/MS/MS analysis; type: ADME, organism-based; parameters: dose 0.4 mg/kg, route intravenous; conditions: in vivo
[21] = Metabolic stability in monkey hepatocytes assessed as hepatic clearance; type: ADME, cell-based, Macaca mulatta, Liver, Hepatocyte; conditions: rhesus monkey
[22] = Metabolic stability in dog hepatocytes assessed as hepatic clearance; type: ADME, cell-based, Canis lupus familiaris, Liver, Hepatocyte
[23] = Metabolic stability in rat hepatocytes assessed as hepatic clearance; type: ADME, cell-based, Liver, Hepatocyte
[24] = Plasma protein binding in cynomolgus monkey; type: ADME, cell-free, Macaca fascicularis; conditions: read-out: PPB (converted)
[25] = Plasma protein binding in dog; type: ADME, cell-free, Canis lupus familiaris; conditions: read-out: PPB (converted)
[26] = Apparent permeability across basolateral to apical side in dog MDCK cells; type: ADME, cell-based, Canis lupus familiaris
[27] = Plasma protein binding in rat; type: ADME, cell-free; conditions: read-out: PPB (converted)
[28] = Thermodynamic solubility in aqueous buffer at pH 7.4; type: physicochemical; conditions: read-out: Therm_solubility
[29] = Thermodynamic solubility in aqueous buffer at pH 2; type: physicochemical; conditions: read-out: Therm_solubility
[30] = Cmax in Sprague-Dawley rat at 2 mg/kg, po by LC/MS/MS analysis; type: ADME, organism-based; parameters: dose 2 mg/kg, route oral; conditions: in vivo
Cytochrome P450 2C19 = Cytochrome P450 2C19 (Homo sapiens, UniProt P33261)
Cytochrome P450 2D6 = Cytochrome P450 2D6 (Homo sapiens, UniProt P10635)
Cytochrome P450 2C9 = Cytochrome P450 2C9 (Homo sapiens, UniProt P11712)
[31] = molecular target: Voltage-gated inwardly rectifying potassium channel KCNH2 (Homo sapiens, UniProt Q12809)
[32] = molecular target: T5, Non-receptor tyrosine-protein kinase TYK2 (Homo sapiens, UniProt P29597)
[33] = molecular target: T5, Non-receptor tyrosine-protein kinase TYK2; remark: listed apart in the source

T1 sequence (P23458 whole entry): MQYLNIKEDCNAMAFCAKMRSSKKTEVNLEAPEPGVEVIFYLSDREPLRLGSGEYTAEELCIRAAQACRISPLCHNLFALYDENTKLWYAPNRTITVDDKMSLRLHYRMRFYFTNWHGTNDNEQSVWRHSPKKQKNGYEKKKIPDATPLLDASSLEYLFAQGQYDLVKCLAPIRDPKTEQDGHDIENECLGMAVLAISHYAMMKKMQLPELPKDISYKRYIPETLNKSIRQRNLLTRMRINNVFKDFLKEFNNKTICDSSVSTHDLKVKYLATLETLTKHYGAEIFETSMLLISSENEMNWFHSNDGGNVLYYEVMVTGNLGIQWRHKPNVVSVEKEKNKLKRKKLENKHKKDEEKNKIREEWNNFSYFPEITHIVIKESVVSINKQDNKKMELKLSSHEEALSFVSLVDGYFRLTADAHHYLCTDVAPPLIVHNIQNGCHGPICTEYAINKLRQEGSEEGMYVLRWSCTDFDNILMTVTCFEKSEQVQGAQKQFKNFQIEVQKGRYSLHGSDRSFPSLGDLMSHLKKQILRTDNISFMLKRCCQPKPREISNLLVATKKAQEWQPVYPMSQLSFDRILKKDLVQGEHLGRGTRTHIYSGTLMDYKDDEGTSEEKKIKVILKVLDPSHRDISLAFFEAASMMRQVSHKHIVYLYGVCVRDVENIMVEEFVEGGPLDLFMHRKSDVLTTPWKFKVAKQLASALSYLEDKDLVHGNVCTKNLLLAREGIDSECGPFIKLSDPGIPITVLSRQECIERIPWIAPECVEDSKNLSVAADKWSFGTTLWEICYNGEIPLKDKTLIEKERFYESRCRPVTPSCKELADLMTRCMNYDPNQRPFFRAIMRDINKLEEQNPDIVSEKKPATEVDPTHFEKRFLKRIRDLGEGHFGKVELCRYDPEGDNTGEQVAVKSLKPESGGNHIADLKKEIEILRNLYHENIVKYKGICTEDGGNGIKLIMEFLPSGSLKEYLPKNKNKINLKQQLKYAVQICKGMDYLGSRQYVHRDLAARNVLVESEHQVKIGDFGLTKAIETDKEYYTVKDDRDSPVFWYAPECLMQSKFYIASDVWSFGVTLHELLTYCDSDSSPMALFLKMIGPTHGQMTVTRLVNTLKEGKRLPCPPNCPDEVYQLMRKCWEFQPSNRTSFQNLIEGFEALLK
T2 sequence (O60674 whole entry): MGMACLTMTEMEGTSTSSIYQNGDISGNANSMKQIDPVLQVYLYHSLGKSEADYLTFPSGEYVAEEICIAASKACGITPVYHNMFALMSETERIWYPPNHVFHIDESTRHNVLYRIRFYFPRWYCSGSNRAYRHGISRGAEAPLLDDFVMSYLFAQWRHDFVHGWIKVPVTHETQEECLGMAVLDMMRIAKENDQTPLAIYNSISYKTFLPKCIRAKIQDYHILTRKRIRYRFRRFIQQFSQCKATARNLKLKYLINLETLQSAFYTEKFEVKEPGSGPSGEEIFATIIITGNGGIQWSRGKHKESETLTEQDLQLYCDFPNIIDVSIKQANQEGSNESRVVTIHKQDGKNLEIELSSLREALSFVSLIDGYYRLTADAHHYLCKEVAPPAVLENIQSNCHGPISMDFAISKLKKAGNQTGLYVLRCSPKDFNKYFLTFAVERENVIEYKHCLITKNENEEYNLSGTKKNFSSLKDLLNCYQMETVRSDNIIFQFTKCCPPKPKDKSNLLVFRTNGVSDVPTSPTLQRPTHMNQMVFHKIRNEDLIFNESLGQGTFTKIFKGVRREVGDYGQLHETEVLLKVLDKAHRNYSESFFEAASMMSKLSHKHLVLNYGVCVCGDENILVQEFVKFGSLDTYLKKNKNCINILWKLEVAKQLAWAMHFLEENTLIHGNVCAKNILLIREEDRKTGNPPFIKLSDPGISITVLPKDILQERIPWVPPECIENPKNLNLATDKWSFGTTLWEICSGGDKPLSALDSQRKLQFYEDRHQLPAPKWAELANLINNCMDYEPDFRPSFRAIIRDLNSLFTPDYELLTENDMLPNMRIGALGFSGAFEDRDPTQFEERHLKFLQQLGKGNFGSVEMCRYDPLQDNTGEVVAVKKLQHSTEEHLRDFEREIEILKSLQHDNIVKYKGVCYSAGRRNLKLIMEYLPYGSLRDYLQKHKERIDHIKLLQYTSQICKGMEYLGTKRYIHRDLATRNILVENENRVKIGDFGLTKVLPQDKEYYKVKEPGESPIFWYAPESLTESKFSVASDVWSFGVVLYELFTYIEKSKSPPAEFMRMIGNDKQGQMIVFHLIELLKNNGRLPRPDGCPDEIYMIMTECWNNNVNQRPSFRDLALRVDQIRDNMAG
T3 sequence (P08684 whole entry): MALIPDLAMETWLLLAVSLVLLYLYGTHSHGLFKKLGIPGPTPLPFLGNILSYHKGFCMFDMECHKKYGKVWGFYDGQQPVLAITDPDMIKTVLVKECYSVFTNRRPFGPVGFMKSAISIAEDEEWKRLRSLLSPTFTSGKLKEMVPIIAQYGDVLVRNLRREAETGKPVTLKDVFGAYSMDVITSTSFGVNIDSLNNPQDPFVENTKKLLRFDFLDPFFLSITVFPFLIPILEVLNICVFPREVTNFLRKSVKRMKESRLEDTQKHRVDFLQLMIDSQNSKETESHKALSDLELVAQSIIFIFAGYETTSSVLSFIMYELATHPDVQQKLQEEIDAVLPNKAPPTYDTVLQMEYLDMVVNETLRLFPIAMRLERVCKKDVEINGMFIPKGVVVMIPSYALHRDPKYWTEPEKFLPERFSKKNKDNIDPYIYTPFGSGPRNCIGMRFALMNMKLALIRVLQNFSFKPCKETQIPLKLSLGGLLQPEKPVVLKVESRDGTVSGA
T5 sequence (P29597 whole entry): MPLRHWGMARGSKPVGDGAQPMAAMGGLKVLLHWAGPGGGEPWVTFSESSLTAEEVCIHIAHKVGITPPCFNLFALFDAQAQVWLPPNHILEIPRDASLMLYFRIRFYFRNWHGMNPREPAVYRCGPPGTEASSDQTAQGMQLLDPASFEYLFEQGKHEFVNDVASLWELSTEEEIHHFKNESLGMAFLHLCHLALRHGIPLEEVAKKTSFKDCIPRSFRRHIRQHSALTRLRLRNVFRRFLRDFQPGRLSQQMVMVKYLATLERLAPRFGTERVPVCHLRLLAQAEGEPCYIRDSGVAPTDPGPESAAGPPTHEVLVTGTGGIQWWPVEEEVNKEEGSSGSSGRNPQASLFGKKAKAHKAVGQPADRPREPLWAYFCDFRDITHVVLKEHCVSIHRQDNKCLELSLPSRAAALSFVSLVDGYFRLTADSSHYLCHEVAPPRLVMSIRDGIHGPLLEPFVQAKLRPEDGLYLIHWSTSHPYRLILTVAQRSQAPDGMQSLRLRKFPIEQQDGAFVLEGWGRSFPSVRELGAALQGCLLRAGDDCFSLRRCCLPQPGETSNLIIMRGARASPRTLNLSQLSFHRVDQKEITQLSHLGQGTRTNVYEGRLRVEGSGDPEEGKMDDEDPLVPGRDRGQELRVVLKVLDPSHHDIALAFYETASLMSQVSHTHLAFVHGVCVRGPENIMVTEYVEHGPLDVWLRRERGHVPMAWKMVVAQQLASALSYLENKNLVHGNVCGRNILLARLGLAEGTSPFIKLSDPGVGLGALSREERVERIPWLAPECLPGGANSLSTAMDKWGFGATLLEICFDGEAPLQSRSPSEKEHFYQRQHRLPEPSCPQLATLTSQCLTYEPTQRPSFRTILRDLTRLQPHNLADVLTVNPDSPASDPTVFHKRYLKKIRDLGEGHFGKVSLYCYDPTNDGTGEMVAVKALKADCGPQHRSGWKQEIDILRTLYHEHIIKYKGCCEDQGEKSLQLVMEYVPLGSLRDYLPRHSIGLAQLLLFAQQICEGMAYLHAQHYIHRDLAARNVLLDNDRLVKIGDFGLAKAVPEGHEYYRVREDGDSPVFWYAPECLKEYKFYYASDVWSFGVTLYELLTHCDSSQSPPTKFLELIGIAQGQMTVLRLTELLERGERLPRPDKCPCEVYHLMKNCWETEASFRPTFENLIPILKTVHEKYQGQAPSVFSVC
Chain of Cytochrome P450 2C19 (P33261 whole entry): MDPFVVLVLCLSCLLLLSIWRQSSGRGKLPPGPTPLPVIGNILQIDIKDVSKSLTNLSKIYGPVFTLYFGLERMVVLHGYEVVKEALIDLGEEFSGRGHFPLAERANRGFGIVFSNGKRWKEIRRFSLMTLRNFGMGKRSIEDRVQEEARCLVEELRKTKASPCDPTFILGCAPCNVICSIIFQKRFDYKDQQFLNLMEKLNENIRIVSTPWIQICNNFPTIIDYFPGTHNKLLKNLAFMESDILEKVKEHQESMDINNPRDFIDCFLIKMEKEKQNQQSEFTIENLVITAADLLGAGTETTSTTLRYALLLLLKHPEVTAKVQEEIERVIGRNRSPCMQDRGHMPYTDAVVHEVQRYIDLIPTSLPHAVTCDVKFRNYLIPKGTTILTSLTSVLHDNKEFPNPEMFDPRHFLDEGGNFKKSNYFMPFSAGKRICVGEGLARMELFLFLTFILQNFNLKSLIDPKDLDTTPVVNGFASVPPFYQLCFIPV
Chain of Cytochrome P450 2C9 (P11712 whole entry): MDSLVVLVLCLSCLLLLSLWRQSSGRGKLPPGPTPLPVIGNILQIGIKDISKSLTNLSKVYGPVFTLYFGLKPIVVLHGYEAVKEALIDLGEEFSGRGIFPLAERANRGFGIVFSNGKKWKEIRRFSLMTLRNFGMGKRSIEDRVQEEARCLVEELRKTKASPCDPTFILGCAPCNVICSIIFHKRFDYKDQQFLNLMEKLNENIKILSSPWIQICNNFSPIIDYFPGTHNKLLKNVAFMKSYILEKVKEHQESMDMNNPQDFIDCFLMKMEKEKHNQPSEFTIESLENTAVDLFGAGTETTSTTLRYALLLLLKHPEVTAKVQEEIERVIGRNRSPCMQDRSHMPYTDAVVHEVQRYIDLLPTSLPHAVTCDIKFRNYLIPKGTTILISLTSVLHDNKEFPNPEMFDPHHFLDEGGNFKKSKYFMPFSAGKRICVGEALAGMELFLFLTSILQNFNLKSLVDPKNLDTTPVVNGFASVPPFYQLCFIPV

CLhep predicted [1]: 4.2 mL/min/kg
CLhep predicted [2]: 6.8 mL/min/kg
Papp A→B [3]: 1.9 ×10⁻⁶ cm/s
EC50 [4]: 320 nM
EC50 [5]: 510 nM
Ki [6]: 3.4 nM
Compound: C[C@@H](O)c1nc2cnc3[nH]ccc3c2n1C1CCN(CCC#N)CC1

CLhep predicted [1]: 5.2 mL/min/kg
Ki [6]: 43 nM
Compound: C[C@@H](O)c1nc2cnc3[nH]ccc3c2n1[C@@H]1CCCN(C(=O)CC(F)(F)F)C1

CLhep predicted [1]: 1.3 mL/min/kg
CLhep predicted [2]: 5.9 mL/min/kg
Papp A→B [3]: 6.7 ×10⁻⁶ cm/s
Compound: CO[C@H]1CC[C@H](n2c([C@@H](C)O)nc3cnc4[nH]ccc4c32)CC1

Papp A→B [3]: 1.1 ×10⁻⁶ cm/s
EC50 [4]: 140 nM
EC50 [5]: 120 nM
Compound: C[C@@H](O)c1nc2cnc3[nH]ccc3c2n1[C@@H]1CCC[C@@H](O)C1

Papp A→B [3]: 19 ×10⁻⁶ cm/s
EC50 [7]: 4400 nM
Ki [8]: 76 nM
EC50 [5]: 330 nM
Ki [6]: 13 nM
Compound: CC(C)(O)c1nc2cnc3[nH]ccc3c2n1C1CCCCC1

IC50 (Cytochrome P450 3A4 [9]): > 10000 nM
IC50 (Cytochrome P450 1A2): > 10000 nM
IC50 (Cytochrome P450 3A4 [10]): > 10000 nM
Ki [11]: 76 nM
bioavailability [12]: 139%
bioavailability [13]: 54%
Cmax [14]: 2100 nM
AUC [15]: 9.9 µM·h
AUC [16]: 1.4 µM·h
half-life [17]: 1.7 h
half-life [18]: 0.5 h
clearance [19]: 13 mL/min/kg
clearance [20]: 36 mL/min/kg
CLhep predicted [21]: 26 mL/min/kg
CLhep predicted [22]: 2.3 mL/min/kg
CLhep predicted [23]: 11 mL/min/kg
fraction unbound [24]: 0.35
fraction unbound [25]: 0.45
Papp B→A [26]: 10 ×10⁻⁶ cm/s
fraction unbound [27]: 0.44
solubility thermodynamic [28]: 130 µM (≈ 49.6 µg/mL)
solubility thermodynamic [29]: 3900 µM (≈ 1490 µg/mL)
CLhep predicted [1]: 3.3 mL/min/kg
CLhep predicted [2]: 2 mL/min/kg
Papp A→B [3]: 6.7 ×10⁻⁶ cm/s
Cmax [30]: 960 nM
IC50 (Cytochrome P450 2C19): > 10000 nM
IC50 (Cytochrome P450 2D6): > 10000 nM
IC50 (Cytochrome P450 2C9): > 10000 nM
EC50 [32]: 310 nM
Ki [33]: 3.4 nM
EC50 [4]: 29 nM
EC50 [5]: 28 nM
Ki [6]: 0.8 nM
Compound: C[C@@H](O)c1nc2cnc3[nH]ccc3c2n1[C@H]1CC[C@H](NCC(F)(F)F)CC1
IC50 [31]: > 100000 nM

CLhep predicted [1]: 18 mL/min/kg
CLhep predicted [2]: 16 mL/min/kg
Ki [6]: 53 nM
Compound: C[C@@H](O)c1nc2cnc3[nH]ccc3c2n1[C@H]1CC[C@@H](NCC(F)(F)F)CC1

CLhep predicted [1]: 2.9 mL/min/kg
CLhep predicted [2]: 3.7 mL/min/kg
Papp A→B [3]: 15 ×10⁻⁶ cm/s
EC50 [4]: 330 nM
EC50 [5]: 88 nM
Ki [6]: 2 nM
Compound: CCN1CCC(n2c([C@@H](C)O)nc3cnc4[nH]ccc4c32)C(F)(F)C1 (some centres undefined)

CLhep predicted [1]: 7.6 mL/min/kg
CLhep predicted [2]: 12 mL/min/kg
Papp A→B [3]: 22 ×10⁻⁶ cm/s
Compound: CC[C@@H](O)c1nc2cnc3[nH]ccc3c2n1C1CCCCC1

Papp A→B [3]: 23 ×10⁻⁶ cm/s
EC50 [7]: 1700 nM
Ki [8]: 21 nM
Compound: C[C@@H](O)c1nc2cnc3[nH]ccc3c2n1C1CCCCC1

CLhep predicted [1]: 9.2 mL/min/kg
CLhep predicted [2]: 8.5 mL/min/kg
Papp A→B [3]: 25 ×10⁻⁶ cm/s
EC50 [4]: 820 nM
EC50 [5]: 110 nM
Ki [6]: 2.6 nM
Compound: C[C@@H](O)c1nc2cnc3[nH]ccc3c2n1C1CCN(CC(F)(F)F)CC1

CLhep predicted [1]: 1.9 mL/min/kg
EC50 [4]: 730 nM
EC50 [5]: 410 nM
Compound: C[C@@H](O)c1nc2cnc3[nH]ccc3c2n1[C@H]1CC[C@H](O)CC1

Ki [6]: 31 nM
Compound: C[C@@H](O)c1nc2cnc3[nH]ccc3c2n1C1CCOCC1
